In ChEMBL document CHEMBL1154930, “N1-Heterocyclic pyrimidinediones as non-nucleoside inhibitors of HIV-1 reverse transcriptase” (Bioorg Med Chem Lett, 2010):

Assays:
Albumin = Albumin (Homo sapiens, UniProt P02768); assay: Binding affinity to human serum albumin; format: ADME; conditions: read-out: PB (converted)
[1] = system: Human immunodeficiency virus 1; assay: Antiviral activity against HIV1 harboring reverse transcriptase Y181C mutant infected in human MT2 cells; format: functional, organism-based; conditions: Human immunodeficiency virus 1, MT2
[2] = Half life in human microsomes; format: ADME, Microsome
[3] = Oral bioavailability in Beagle dog at 4 mg/kg, po; format: ADME, organism-based, Canis lupus familiaris; conditions: in vivo
[4] = Volume of distribution at steady state in Beagle dog at 0.5 mg/kg, iv or 0.5 mg/kg, po; format: ADME, organism-based, Canis lupus familiaris; conditions: in vivo, read-out: Vdss
[5] = Half life in Beagle dog at 0.5 mg/kg, iv or 0.5 mg/kg, po; format: ADME, organism-based, Canis lupus familiaris; conditions: in vivo
[6] = system: Human immunodeficiency virus 1; assay: Antiviral activity against wild type HIV1 infected in human MT2 cells; format: functional, organism-based; conditions: Human immunodeficiency virus 1, MT2
[7] = system: Human immunodeficiency virus 1; assay: Antiviral activity against NNRTI-resistant HIV1 harboring reverse transcriptase K103N mutant infected in human MT2 cells; format: functional, organism-based; conditions: Human immunodeficiency virus 1, MT2
[8] = Oral bioavailability in Beagle dog at 2 mg/kg, po; format: ADME, organism-based, Canis lupus familiaris; conditions: in vivo
[9] = Half life in dog microsomes; format: ADME, Canis lupus familiaris, Microsome
[10] = Oral bioavailability in Beagle dog at 0.5 mg/kg, po; format: ADME, organism-based, Canis lupus familiaris; conditions: in vivo

Sequence of Albumin (P02768 whole entry): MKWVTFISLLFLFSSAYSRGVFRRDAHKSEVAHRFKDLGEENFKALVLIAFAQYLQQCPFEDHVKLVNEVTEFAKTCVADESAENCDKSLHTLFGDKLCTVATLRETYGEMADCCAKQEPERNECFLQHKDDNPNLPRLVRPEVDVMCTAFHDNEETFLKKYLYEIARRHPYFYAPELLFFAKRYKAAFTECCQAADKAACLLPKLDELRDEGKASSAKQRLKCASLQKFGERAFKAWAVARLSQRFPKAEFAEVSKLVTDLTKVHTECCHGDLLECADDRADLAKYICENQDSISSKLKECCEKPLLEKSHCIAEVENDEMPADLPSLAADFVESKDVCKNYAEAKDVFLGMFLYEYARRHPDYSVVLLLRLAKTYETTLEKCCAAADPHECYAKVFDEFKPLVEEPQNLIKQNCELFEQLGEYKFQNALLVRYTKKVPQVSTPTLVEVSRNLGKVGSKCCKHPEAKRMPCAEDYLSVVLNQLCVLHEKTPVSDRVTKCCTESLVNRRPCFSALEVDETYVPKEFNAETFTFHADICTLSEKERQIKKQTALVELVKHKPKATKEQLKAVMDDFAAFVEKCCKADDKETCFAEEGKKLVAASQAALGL

Cc1cc(C#N)cc(C(=O)c2c(C(C)C)c(=O)[nH]c(=O)n2Cc2cc(N)nc(F)c2)c1
fraction unbound (Albumin): 0.064
EC50 [1]: 6.7 nM
half-life [2]: 0.75 h
bioavailability [3]: 96%
Vd [4]: 1.8 L/kg
half-life [5]: 3.3 h
EC50 [6]: 3.4 nM
EC50 [7]: 1.6 nM

Cc1cc(C#N)cc(C(=O)c2c(C(C)C)c(=O)[nH]c(=O)n2Cc2ccnc(F)c2)c1
fraction unbound (Albumin): 0.123
bioavailability [8]: 80%
EC50 [1]: 16 nM
half-life [2]: 4.68 h
Vd [4]: 1.61 L/kg
half-life [5]: 4.7 h
EC50 [6]: 6.2 nM
EC50 [7]: 2.4 nM

O=C1Nc2ccc(Cl)cc2[C@@](C#CC2CC2)(C(F)(F)F)O1 [EFAVIRENZ]
EC50 [1]: 2.6 nM
half-life [2]: 1.63 h
EC50 [7]: 35 nM

Cc1cc(C#N)cc(C)c1Oc1nc(Nc2ccc(C#N)cc2)nc(N)c1Br [ETRAVIRINE]
EC50 [1]: 2.6 nM
half-life [2]: 2.33 h
EC50 [6]: 1.6 nM
EC50 [7]: 0.9 nM

Cc1cc(C#N)cc(C(=O)c2c(C(C)C)c(=O)[nH]c(=O)n2Cc2cc(F)nc(F)c2)c1
fraction unbound (Albumin): 0.058
EC50 [1]: 12 nM
t1/2 [2]: Stable
Vd [4]: 1.94 L/kg
half-life [5]: 4.9 h
t1/2 [9]: Stable
EC50 [6]: 12.4 nM
bioavailability [10]: 41.5%
EC50 [7]: 1.9 nM

Cc1cc(C#N)cc(C(=O)c2c(C(C)C)c(=O)[nH]c(=O)n2Cc2cc(N)nc(F)c2F)c1
fraction unbound (Albumin): 0.067
EC50 [1]: 8.2 nM
half-life [2]: 0.85 h
EC50 [6]: 4.5 nM
EC50 [7]: 7.3 nM
